# Reference: PubChem BioAssay AID1963854 (Molecular Pharmacology Branch, DTP, NCI, 2024)
# Tested on: 186277-243-T-J2-PDC complex spheroid viability
# Assay: Anticancer human tumor 186277-243-T-J2-PDC patient-derived colon adenocarcinoma cell line growth inhibition [POLQ]
# Settings: for IC50: curve of first compound; for viability, T/C: stronger effect = lower value
# Procedure: Multicellular complex tumor spheroid response to Polymerase (POL) inhibitors (novobiocin, ART-558, RP6685) in combination with a variety of drugs and investigational agents in selected tumor cell lines
# The POL inhibitors (novobiocin, ART-558, and RP6685) were evaluated both individually and in combination with standard of care and investigational anticancer small molecules within a complex spheroid model of solid tumors. . Complex spheroids include a stromal component modeled by human endothelial cells (HUVEC) and fibroblasts modeled by human mesenchymal stem cells (MSCs). The concentration ranges selected for each drug and investigational agent were based upon clinically achievable concentrations if the clinical Cmax of the agent was known.
# Compounds. The drugs and investigational agents: novobiocin (NSC847541), ART-558 (NSC835418), RP-6685 (NSC848927), peposertib (NSC802822), ceralasertib (NSC780249), elimusertib (NSC800525), camonsertib (NSC841442), AZD-1390 (NSC803789), olaparib (NSC753686), talazoparib (NSC767125), rucaparib (NSC756644), sotorasib (NSC818433), MRTX-1133 (NSC836407), SN-38 (NSC673596), topotecan (NSC609699), epotoside (NSC141540), doxorubicin (NSC123127), gemcitabine (NSC613327), 5-fluorouracil (NSC19893), paclitaxel (NSC125973), vemurafenib (NSC761431), MSA-2 (NSC828583), SN-011 (NSC837082), adavosertib (NSC754352), prexasertib (NSC758257), carboplatin (NSC241240) and oxaliplatin (NSC266046), were obtained from the National Cancer Institute (NCI) Developmental Therapeutics Program Chemical Repository (21). The FDA-approved anticancer drug set is available from the Developmental Therapeutics Program at https://dtp.cancer.gov/organization/dscb/obtaining/. […] The stock solutions were prepared in dimethyl sulfoxide (DMSO, Sigma-Aldrich, St. Louis, MO, cat. D2650), except for the platinum compounds which were prepared in saline (Quality Biological, Gaithersburg, MD, cat. 114-055-101), at 800-fold the tested concentration and stored at -70 degrees C prior to their use. All drugs and investigational agents were tested over a range starting from a high concentration at or near the clinical Cmax and decreasing in half-log increments. If the clinical Cmax for an agent had not been determined, the highest concentration tested was 10 microM, except for SN-38, which was tested at a high concentration of 1 microM.
# Cell Culture. All cells were maintained in an incubator at 37 degrees C and 5% CO2 with 95% humidity. The PDC lines were cultured according to standard operating procedures established by the NCI PDMR (https://pdmr.cancer.gov). Table 3 of the manuscript, lists the cell lines along with the number of the three cell types plated to form the mct-spheroids and media for tumor cell growth. After thawing, all PDC lines, except 997537-175-T-J1-PDC and 415267-285-R-J2-PDC, were cultured in Matrigel-coated flasks prepared with a working solution of 1X Ham's F-12 nutrient mix, without supplementation (Thermo Fisher Scientific, cat. 11765054), 100 U/mL penicillin-streptomycin (Thermo Fisher Scientific, cat. 15140122), and 2.5% Matrigel (Corning Inc., Corning, NY, cat. 354248) for the first three passages. The two PDC lines 997537-175-T-J1-PDC and 415267-285-R-J2-PDC were cultured on uncoated flasks. The 857933-349-R-J2-PDC line was cultured in 6C/Colon 1B media containing advanced DMEM/F-12 (Thermo Fisher Scientific, cat. 12634028), 10 mM HEPES (Thermo Fisher Scientific, cat. 15630080), 1X GlutaMAX supplement (Thermo Fisher Scientific, cat. 35050061), 0.1 mg/mL primocin (InvivoGen, San Diego, CA, cat. ant-pm-2), 10% defined fetal bovine serum, heat inactivated (HyClone Laboratories Inc., Logan, UT, cat. SH30070.03HI), 50% L-WRN conditioned media (ATCC, cat. CRL-3276), 1.25 mM N-Acetyl-L-cysteine (Sigma-Aldrich, cat. A9165), 10 mM nicotinamide (Sigma-Aldrich, cat. N0636), 1X B-27 supplement (Thermo Fisher Scientific, cat. 17504044), 1X N-2 supplement (Thermo Fisher Scientific, cat. […]
# [1] = second compound 0.0316 µM, first compound 0.0316 µM
# [2] = second compound 0.0316 µM, first compound 0.1 µM
# [3] = second compound 0.0316 µM, first compound 0.316 µM
# [4] = second compound 0.0316 µM, first compound 1 µM
# [5] = second compound 0.0316 µM, first compound 3.16 µM
# [6] = second compound 0.0316 µM, first compound 10 µM
# [7] = second compound 0.1 µM, first compound 0.0316 µM
# [8] = second compound 0.1 µM, first compound 0.1 µM
# [9] = second compound 0.1 µM, first compound 0.316 µM
# [10] = second compound 0.1 µM, first compound 1 µM
# [11] = second compound 0.1 µM, first compound 3.16 µM
# [12] = second compound 0.1 µM, first compound 10 µM
# [13] = second compound 0.316 µM, first compound 0.0316 µM
# [14] = second compound 0.316 µM, first compound 0.1 µM
# [15] = second compound 0.316 µM, first compound 0.316 µM
# [16] = second compound 0.316 µM, first compound 1 µM
# [17] = second compound 0.316 µM, first compound 3.16 µM
# [18] = second compound 0.316 µM, first compound 10 µM
# [19] = second compound 1 µM, first compound 0.0316 µM
# [20] = second compound 1 µM, first compound 0.1 µM
# [21] = second compound 1 µM, first compound 0.316 µM
# [22] = second compound 1 µM, first compound 1 µM
# [23] = second compound 1 µM, first compound 3.16 µM
# [24] = second compound 1 µM, first compound 10 µM
# [25] = second compound 3.16 µM, first compound 0.0316 µM
# [26] = second compound 3.16 µM, first compound 0.1 µM
# [27] = second compound 3.16 µM, first compound 0.316 µM
# [28] = second compound 3.16 µM, first compound 1 µM
# [29] = second compound 3.16 µM, first compound 3.16 µM
# [30] = second compound 3.16 µM, first compound 10 µM
# [31] = second compound 10 µM, first compound 0.0316 µM
# [32] = second compound 10 µM, first compound 0.1 µM
# [33] = second compound 10 µM, first compound 0.316 µM
# [34] = second compound 10 µM, first compound 1 µM
# [35] = second compound 10 µM, first compound 3.16 µM
# [36] = second compound 10 µM, first compound 10 µM
# 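Also: spheroids exposed to compounds for seven days.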
# 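For viability, T/C in this document: 100% = DMSO vehicle control viability.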
smiles,measurement,setting,value
CC1COCCN1c1cc(C2(O)CC3CCC(C2)O3)c2cnn(-c3ccn[nH]3)c2n1 (stereo unspecified) + Nc1ccc(C#CCN(C(=O)Cc2ncc(C(F)(F)F)cc2C(F)(F)F)c2ccc(F)cc2)nn1,IC50,second compound 0.0316 µM,67.1 nM
same,IC50,second compound 0.1 µM,69 nM
same,IC50,second compound 0.316 µM,71.3 nM
same,IC50,second compound 1 µM,66.4 nM
same,IC50,second compound 3.16 µM,64.4 nM
same,IC50,second compound 10 µM,55.2 nM
same,"viability, T/C",[1],107%
same,"viability, T/C",[2],19.5%
same,"viability, T/C",[3],9.32%
same,"viability, T/C",[4],6.59%
same,"viability, T/C",[5],9.6%
same,"viability, T/C",[6],7.56%
same,"viability, T/C",[7],113%
same,"viability, T/C",[8],20.2%
same,"viability, T/C",[9],8.44%
same,"viability, T/C",[10],6.39%
same,"viability, T/C",[11],8.6%
same,"viability, T/C",[12],8.62%
same,"viability, T/C",[13],116%
same,"viability, T/C",[14],22.6%
same,"viability, T/C",[15],8.74%
same,"viability, T/C",[16],6.2%
same,"viability, T/C",[17],8.36%
same,"viability, T/C",[18],8.22%
same,"viability, T/C",[19],109%
same,"viability, T/C",[20],17.5%
same,"viability, T/C",[21],8.98%
same,"viability, T/C",[22],6.1%
same,"viability, T/C",[23],8.12%
same,"viability, T/C",[24],7.01%
same,"viability, T/C",[25],102%
same,"viability, T/C",[26],17.9%
same,"viability, T/C",[27],8.53%
same,"viability, T/C",[28],7.23%
same,"viability, T/C",[29],8.02%
same,"viability, T/C",[30],9.12%
same,"viability, T/C",[31],85.1%
same,"viability, T/C",[32],12.7%
same,"viability, T/C",[33],8.17%
same,"viability, T/C",[34],5.8%
same,"viability, T/C",[35],8.58%
same,"viability, T/C",[36],6.5%
C=CC(=O)N1CCN(c2nc(=O)n(-c3c(C)ccnc3C(C)C)c3nc(-c4c(O)cccc4F)c(F)cc23)C(C)C1 (stereo unspecified) + Nc1ccc(C#CCN(C(=O)Cc2ncc(C(F)(F)F)cc2C(F)(F)F)c2ccc(F)cc2)nn1,IC50,second compound 0.0316 µM,> 10000 nM
same,IC50,second compound 0.1 µM,> 10000 nM
same,IC50,second compound 0.316 µM,> 10000 nM
same,IC50,second compound 1 µM,> 10000 nM
same,IC50,second compound 3.16 µM,> 10000 nM
same,IC50,second compound 10 µM,> 10000 nM
same,"viability, T/C",[1],98.7%
same,"viability, T/C",[2],84.2%
same,"viability, T/C",[3],96.2%
same,"viability, T/C",[4],83.5%
same,"viability, T/C",[5],115%
same,"viability, T/C",[6],101%
same,"viability, T/C",[7],93.1%
same,"viability, T/C",[8],94.5%
same,"viability, T/C",[9],102%
same,"viability, T/C",[10],103%
same,"viability, T/C",[11],95.1%
same,"viability, T/C",[12],112%
same,"viability, T/C",[13],91%
same,"viability, T/C",[14],106%
same,"viability, T/C",[15],100%
same,"viability, T/C",[16],96.1%
same,"viability, T/C",[17],92.6%
same,"viability, T/C",[18],100%
same,"viability, T/C",[19],91.8%
same,"viability, T/C",[20],101%
same,"viability, T/C",[21],90%
same,"viability, T/C",[22],87.1%
same,"viability, T/C",[23],96%
same,"viability, T/C",[24],104%
same,"viability, T/C",[25],97.6%
same,"viability, T/C",[26],92.3%
same,"viability, T/C",[27],97.7%
same,"viability, T/C",[28],102%
same,"viability, T/C",[29],99.3%
same,"viability, T/C",[30],101%
same,"viability, T/C",[31],112%
same,"viability, T/C",[32],99.9%
same,"viability, T/C",[33],107%
same,"viability, T/C",[34],101%
same,"viability, T/C",[35],95.9%
same,"viability, T/C",[36],105%
CC1COCCN1c1cc(C2(O)CC3CCC(C2)O3)c2cnn(-c3ccn[nH]3)c2n1 (stereo unspecified) + Cc1cccc(N(C)C(=O)C2C(O)CCN2c2nc(C)cc(C(F)(F)F)c2C#N)c1,IC50,second compound 0.0316 µM,43.3 nM
same,IC50,second compound 0.1 µM,42.2 nM
same,IC50,second compound 0.316 µM,44 nM
same,IC50,second compound 1 µM,42.6 nM
same,IC50,second compound 3.16 µM,37.7 nM
same,IC50,second compound 10 µM,< 31.6 nM
same,"viability, T/C",[1],64.5%
same,"viability, T/C",[2],11.7%
same,"viability, T/C",[3],6.18%
same,"viability, T/C",[4],3.85%
same,"viability, T/C",[5],4.2%
same,"viability, T/C",[6],4.79%
same,"viability, T/C",[7],63.9%
same,"viability, T/C",[8],8.95%
same,"viability, T/C",[9],5.9%
same,"viability, T/C",[10],3.73%
same,"viability, T/C",[11],3.97%
same,"viability, T/C",[12],3.76%
same,"viability, T/C",[13],65.4%
same,"viability, T/C",[14],12.1%
same,"viability, T/C",[15],4.75%
same,"viability, T/C",[16],3.38%
same,"viability, T/C",[17],4.54%
same,"viability, T/C",[18],3.64%
same,"viability, T/C",[19],63.3%
same,"viability, T/C",[20],12.2%
same,"viability, T/C",[21],5.42%
same,"viability, T/C",[22],3.92%
same,"viability, T/C",[23],4.12%
same,"viability, T/C",[24],4.45%
same,"viability, T/C",[25],57.4%
same,"viability, T/C",[26],9.6%
same,"viability, T/C",[27],5.36%
same,"viability, T/C",[28],3.46%
same,"viability, T/C",[29],4.49%
same,"viability, T/C",[30],4.05%
same,"viability, T/C",[31],45.9%
same,"viability, T/C",[32],8.7%
same,"viability, T/C",[33],4.15%
same,"viability, T/C",[34],3.16%
same,"viability, T/C",[35],4.29%
same,"viability, T/C",[36],3.09%
